In article PMC12440824, “Chimeric deubiquitinase engineering reveals structural basis for specific inhibition of the mitophagy regulator USP30” (Nature Structural & Molecular Biology, 2025):
“And” between values parts separate entries of the source, which are not always exact repeats. Equal values may be shown once.

What was measured:
USP30^c1 = target: T1, USP30^c1 (Homo sapiens, UniProt Q70CQ3, DEL179-208/DEL211-214/DEL358-428/F348D/I353E/M350S/N216S/S215G); test: Ub–RhoG cleavage enzyme inhibition assay, USP30 construct 1; format: biochemical; conditions: for IC50: Ub–RhoG cleavage, 1.5 h pre-incubation, mean ± s.e.m. from curve fitting; for USP30c1 activity: mean n=3
T1 sequence (Q70CQ3 with tags, fused parts or gaps DEL179-208/DEL211-214/S215G/N216S/F348D/M350S/I353E/DEL358-428): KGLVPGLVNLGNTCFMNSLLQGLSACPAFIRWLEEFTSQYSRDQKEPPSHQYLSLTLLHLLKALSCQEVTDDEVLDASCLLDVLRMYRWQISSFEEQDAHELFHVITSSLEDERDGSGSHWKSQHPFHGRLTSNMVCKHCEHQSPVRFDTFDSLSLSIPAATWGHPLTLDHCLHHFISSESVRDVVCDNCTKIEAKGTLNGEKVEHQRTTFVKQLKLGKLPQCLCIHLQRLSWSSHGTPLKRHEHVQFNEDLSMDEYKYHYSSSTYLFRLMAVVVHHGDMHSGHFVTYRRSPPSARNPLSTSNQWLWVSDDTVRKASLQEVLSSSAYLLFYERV
Description: (§1) Enzyme kinetics were performed in black, low-volume, non-binding-surface 384-well plates. […] Next, 10 µl of 2× enzyme solution was added in triplicate to the plate. The reaction was started by adding 10 µl of 2× substrate solution. […] Inhibitor solution (4×) was added to 4× enzyme solution to create a 2× enzyme–inhibitor mixture. Next, 10 µl of this 2× enzyme–inhibitor mixture was then added to the plate in triplicate, and the plate was incubated at room temperature for 90 min. The reaction was started by adding 10 µl of 2× Ub–RhoG substrate. […] Data were analyzed with GraphPad Prism.

USP30^ch3 F453Y = USP30^ch3 F453Y (Homo sapiens, UniProt Q70CQ3, F453Y, form not given); test: Ub–RhoG cleavage enzyme inhibition assay, chimera 3 F453Y; format: biochemical; design: USP30ch3 F453Y activity / USP30ch3 F453Y activity (ED Fig. 7e series): scale not given here; conditions: for reduction of inhibition potency by F453Y substitution (specificity window vs WT): USP30^ch3 F453Y vs WT; for USP30ch3 F453Y activity (ED Fig. 7e series) / USP30ch3 F453Y activity: mean n=3; for USP30ch3 F453Y activity: Fig. 4e,g
Sequence of USP30^ch3 F453Y (Q70CQ3 64-502 F453Y, form open): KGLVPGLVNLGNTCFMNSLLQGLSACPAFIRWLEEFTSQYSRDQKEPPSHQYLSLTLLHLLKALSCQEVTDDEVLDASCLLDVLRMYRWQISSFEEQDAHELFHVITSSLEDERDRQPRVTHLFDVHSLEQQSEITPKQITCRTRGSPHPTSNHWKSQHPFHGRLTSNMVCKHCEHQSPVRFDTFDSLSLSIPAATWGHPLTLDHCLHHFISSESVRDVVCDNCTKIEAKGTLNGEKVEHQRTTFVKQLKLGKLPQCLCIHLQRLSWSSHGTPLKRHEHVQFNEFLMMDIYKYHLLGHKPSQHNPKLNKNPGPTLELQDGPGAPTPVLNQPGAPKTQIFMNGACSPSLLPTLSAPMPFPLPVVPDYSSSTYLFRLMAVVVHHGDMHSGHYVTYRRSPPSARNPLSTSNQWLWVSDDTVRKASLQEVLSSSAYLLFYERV
Sequence of USP30^ch3 F453Y (P54578 248-318 partner, form open): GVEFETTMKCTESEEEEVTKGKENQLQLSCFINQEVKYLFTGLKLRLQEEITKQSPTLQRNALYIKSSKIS
Sequence of USP30^ch3 F453Y (Q9P2H5 821-846 partner, form open): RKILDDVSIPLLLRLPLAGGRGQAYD
Description: as §1

USP30^ch2 = USP30^ch2 (Homo sapiens, UniProt Q70CQ3); test: Thermal shift assay, USP30 ch2; format: binding; conditions: 20 μM inhibitor
Sequence of USP30^ch2 (Q70CQ3 64-502): as the sequence (Q70CQ3 64-502 F453Y, form open) above, with Y390F counted along it
Sequence of USP30^ch2 (P54578 248-318 partner): as the sequence (P54578 248-318 partner, form open) above
Description: (§2) The thermal stability of USP30 constructs and effects of either inhibitor or Ub-PA binding were determined by thermal shift assays. Inhibitor, Ub-PA and SYPRO orange dye (Sigma, 5,000× stock in DMSO) solutions were prepared in 1× PBS, 4 mM DTT. Inhibitor/Ub-PA was prediluted to 100 µM, and SYPRO orange dye was prediluted to 50× (from the commercial stock). Mixtures of protein, inhibitor/Ub-PA and SYPRO were prepared with inhibitor/Ub-PA at a final concentration of 20 μM, SYPRO at a final concentration of 4× and protein at a final concentration of 2 μM for c1, 4 μM for ch1, ch4 and c2 and 3 μM for ch2 and ch3. Samples were added in triplicate to a white 96-well PCR plate (Bio-Rad). Fluorescence intensity was monitored (excitation, 450–490 nm; emission, 560–580 nm) at a gradient of 20–90 °C (increment of 0.3 °C, hold for 5 s before read) on a real-time PCR system (Bio-Rad).

USP30^ch4 = test: Thermal shift assay, USP30 ch4; format: binding, human; conditions: 20 μM inhibitor; for ΔTm, USP30^ch4: replicates or average
Description: as §2

[1] = system: T2, Flag-tagged, full-length USP30 (wild type) in HEK293 cells; test: Cellular ubiquitin probe competition, overexpressed Flag-tagged full-length USP30 wild type; format: cell-based, human; conditions: 2 µM compound, 2 h; HA-Ub-PA probe in lysate
T2 construct: C-terminally Flag-tagged human USP30 (1–517) was used for transient transfection; expressed in transfected cells; host or cells: HEK293, transient transfection of a pOPINE vector
Description: HEK293 cells (8 × 10^5 cells per well) were seeded in six-well plates and cultivated for 24 h. PEI transfecting reagent (Polysciences) was pre-incubated for 10 min with the vectors in 200 μl Opti-MEM medium (2 µg DNA per well). Cells were transfected and incubated for 48 h. Following the treatment with either compounds or DMSO in fresh medium for an additional 2 h, cells were processed as described below. Cells were seeded at 8 × 10^5 cells per well and grown for 48 h. […] The medium was aspirated, and cells were washed once with ice-cold PBS. Cells were collected by scraping in lysis buffer (150 mM NaCl, 250 mM sucrose, 50 mM Tris, pH 8.0, 5 mM TCEP) supplemented with EDTA-free complete protease inhibitor cocktail and benzonase. Suspended cells were homogenized by 12 bursts of a microtip probe sonicator (Branson Sonifier 450) at 10% amplitude with pulses of 1 s on ice. Remaining cell debris was separated by centrifugation (20,817g, 5 min, 4 °C). […] After incubation for 10 min at room temperature, reactions were quenched by the addition of 4× reducing LDS sample buffer. Samples were resolved by SDS–PAGE and further analyzed via western blot. Using a Trans-Blot Turbo system (Bio-Rad, 1.0 A, 25 V, 30 min), proteins were blotted onto a nitrocellulose membrane. […]

[2] = Solubility in aqueous buffers (observation during crystallization); format: physicochemical
[3] = pH 8, read-out: USP30c1 activity

## CC(C)(CO)NS(=O)(=O)c1ccc(NC(=O)[C@H](Cc2ccccc2)NC(=O)c2ccc(F)cc2)cc1 [NK036]
USP30^c1
  IC50: 7.4 nM and 7.38 nM
USP30^c1; [3]
  activity at 1.562 pM: 100%
  activity at 6.25 pM: 101%
  activity at 25 pM: 98.2%
  activity at 0.0001 µM: 95.3%
  activity at 0.00039 µM: 89%
  activity at 0.00156 µM: 79.6%
  activity at 0.00625 µM: 53.6%
  activity at 0.025 µM: 27%
  activity at 0.1 µM: 10.3%
  activity at 0.4 µM: 3.49%
  activity at 1.6 µM: 1.25%
USP30^ch3 F453Y
  reduction of inhibition potency by F453Y substitution (specificity window vs WT): more than two orders of magnitude
USP30^ch2
  Tm in presence of compound, USP30^ch2: 58.5 °C
USP30^ch4
  Tm in presence of compound, USP30^ch4: 59.2 °C
USP30^ch4; 20 µM
  ΔTm, USP30^ch4: 7.7 °C and 7.6 °C and 7.9 °C
[1]
  probe labeling of wild-type Flag-USP30: abolished probe labeling
[2]
  solubility in aqueous buffers: improved

## CC(C)(C)NS(=O)(=O)c1ccc(NC(=O)[C@H](Cc2ccccc2)NC(=O)c2ccc(F)cc2)cc1 [compound 39]
USP30^c1
  IC50: 0.8 nM and 0.834 nM
USP30^c1; inhibitor 0.0015625 nM
  USP30c1 activity: 0.9588
USP30^c1; inhibitor 0.00625 nM
  USP30c1 activity: 0.9404
USP30^c1; inhibitor 0.025 nM
  USP30c1 activity: 0.8662
USP30^c1; inhibitor 0.1 nM
  USP30c1 activity: 0.7469
USP30^c1; inhibitor 0.39 nM
  USP30c1 activity: 0.5918
USP30^c1; inhibitor 1.56 nM
  USP30c1 activity: 0.4353
USP30^c1; inhibitor 6.25 nM
  USP30c1 activity: 0.2635
USP30^c1; inhibitor 25 nM
  USP30c1 activity: 0.1267
USP30^c1; inhibitor 100 nM
  USP30c1 activity: 0.06264
USP30^c1; inhibitor 400 nM
  USP30c1 activity: 0.02701
USP30^c1; inhibitor 1600 nM
  USP30c1 activity: 0.01055
USP30^ch3 F453Y
  reduction of inhibition potency by F453Y substitution (specificity window vs WT): three orders of magnitude
USP30^ch3 F453Y; inhibitor 0.001563 nM
  USP30ch3 F453Y activity (ED Fig. 7e series): 1.055
  USP30ch3 F453Y activity: 0.9971
USP30^ch3 F453Y; inhibitor 0.00625 nM
  USP30ch3 F453Y activity (ED Fig. 7e series): 1.076
  USP30ch3 F453Y activity: 1.054
USP30^ch3 F453Y; inhibitor 0.025 nM
  USP30ch3 F453Y activity (ED Fig. 7e series): 1.018
  USP30ch3 F453Y activity: 1.004
USP30^ch3 F453Y; inhibitor 0.1 nM
  USP30ch3 F453Y activity (ED Fig. 7e series): 0.9989
  USP30ch3 F453Y activity: 0.9561
USP30^ch3 F453Y; inhibitor 0.39 nM
  USP30ch3 F453Y activity (ED Fig. 7e series): 0.8995
  USP30ch3 F453Y activity: 0.9204
USP30^ch3 F453Y; inhibitor 1.56 nM
  USP30ch3 F453Y activity (ED Fig. 7e series): 0.9776
  USP30ch3 F453Y activity: 0.9185
USP30^ch3 F453Y; inhibitor 6.25 nM
  USP30ch3 F453Y activity (ED Fig. 7e series): 0.9466
  USP30ch3 F453Y activity: 0.9079
USP30^ch3 F453Y; inhibitor 25 nM
  USP30ch3 F453Y activity (ED Fig. 7e series): 0.9111
  USP30ch3 F453Y activity: 0.8377
USP30^ch3 F453Y; inhibitor 100 nM
  USP30ch3 F453Y activity (ED Fig. 7e series): 0.8886
  USP30ch3 F453Y activity: 0.7744
USP30^ch3 F453Y; inhibitor 400 nM
  USP30ch3 F453Y activity (ED Fig. 7e series): 0.7448
  USP30ch3 F453Y activity: 0.5461
USP30^ch3 F453Y; inhibitor 1600 nM
  USP30ch3 F453Y activity (ED Fig. 7e series): 0.7279
  USP30ch3 F453Y activity: 0.3171
USP30^ch2
  Tm in presence of compound, USP30^ch2: 59.1 °C
USP30^ch4
  Tm in presence of compound, USP30^ch4: 60.3 °C
USP30^ch4; 20 µM
  ΔTm, USP30^ch4: 8.8 °C
USP30^ch4; listed as NK017, 20 µM
  ΔTm, USP30^ch4: 9.0 °C and 8.7 °C (2×)
[1]
  probe labeling of wild-type Flag-USP30: abolished probe labeling
[2]
  solubility in aqueous buffers: poor solubility
